Measured values reported in the supplement of paper PMC10307832.

Legend:
Experiment in all cases: relative viability (nuclei count vs DMSO), 5 days (fraction); higher = more cells survive
Entinostat + Luminespib = compound: Nc1ccccc1NC(=O)c1ccc(CNC(=O)OCc2cccnc2)cc1 [Entinostat] + CCNC(=O)c1noc(-c2cc(C(C)C)c(O)cc2O)c1-c1ccc(CN2CCOCC2)cc1 [Luminespib] (partner 0.01 µM)
In short: (§1)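 Relative viability divides the nuclei count in treated wells by that in vehicle wells. Lung cancer cell lines were seeded in 1536-well plates, dosed by pin tool the next day, and fixed and stained after 5 days in one step with final 0.05% Triton X-100, 1% formaldehyde and 1 ug/ml Hoechst. Dosing was a single drug or a fixed anchor-drug dose plus five library-drug doses (not always all listed) in √10 steps, and values are medians of duplicate plates imaged at 4×.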

SGI-1776 + Linsitinib = compound: CN1CCC(CNc2ccc3ncc(-c4cccc(OC(F)(F)F)c4)n3n2)CC1 [SGI-1776] + C[C@]1(O)C[C@@H](c2nc(-c3ccc4ccc(-c5ccccc5)nc4c3)c3c(N)nccn32)C1 [Linsitinib] (partner 1 µM)
In short: as §1

Entinostat + OSI-027 = compound: Nc1ccccc1NC(=O)c1ccc(CNC(=O)OCc2cccnc2)cc1 [Entinostat] + COc1cccc2cc(-c3nc([C@H]4CC[C@H](C(=O)O)CC4)n4ncnc(N)c34)[nH]c12 [OSI-027] (partner 0.5 µM)
In short: as §1

Entinostat + Pemetrexed = compound: Nc1ccccc1NC(=O)c1ccc(CNC(=O)OCc2cccnc2)cc1 [Entinostat] + Nc1nc2[nH]cc(CCc3ccc(C(=O)N[C@@H](CCC(=O)O)C(=O)O)cc3)c2c(=O)[nH]1 [Pemetrexed] (partner 0.2 µM)
In short: as §1

Row | Cell Line | relative viability (Entinostat + Luminespib; first compound 0.02 µM) | relative viability (Entinostat + Luminespib; first compound 0.06325 µM) | relative viability (Entinostat + Luminespib; first compound 0.2 µM) | relative viability (Entinostat + Luminespib; first compound 0.6325 µM) | relative viability (Entinostat + Luminespib; first compound 2 µM) | relative viability (SGI-1776 + Linsitinib; first compound 0.08 µM) | relative viability (SGI-1776 + Linsitinib; first compound 0.8 µM) | relative viability (SGI-1776 + Linsitinib; first compound 2.53 µM) | relative viability (SGI-1776 + Linsitinib; first compound 8 µM) | relative viability (Entinostat + OSI-027; first compound 0.02 µM) | relative viability (Entinostat + OSI-027; first compound 0.06325 µM) | relative viability (Entinostat + OSI-027; first compound 0.2 µM) | relative viability (Entinostat + OSI-027; first compound 0.6325 µM) | relative viability (Entinostat + OSI-027; first compound 2 µM) | relative viability (Entinostat + Pemetrexed; first compound 0.02 µM) | relative viability (Entinostat + Pemetrexed; first compound 0.06325 µM) | relative viability (Entinostat + Pemetrexed; first compound 0.2 µM) | relative viability (Entinostat + Pemetrexed; first compound 0.6325 µM) | relative viability (Entinostat + Pemetrexed; first compound 2 µM)
1 | NCI-H1734 | 0.227 | 0.204 | 0.185 | 0.213 | 0.181 | 0.919 | 0.895 | 0.935 | 0.749 | 0.635 | 0.772 | 0.59 | 0.5 | 0.488 | 0.436 | 0.419 | 0.492 | 0.414 | 0.382
2 | NCI-H1755 | 0.483 | 0.459 | 0.678 | 0.528 | 0.415 | 0.988 | 0.969 | 0.996 | 0.896 | 0.693 | 0.776 | 0.684 | 0.566 | 0.309 | 0.422 | 0.437 | 0.407 | 0.358 | 0.374
3 | NCI-H1792 | 0.5 | 0.519 | 0.362 | 0.392 | 0.469 | 0.479 | 0.543 | 0.503 | 0.647 | 0.752 | 0.753 | 0.609 | 0.569 | 0.43 | 0.844 | 0.765 | 0.896 | 0.374 | 0.191
4 | NCI-H1793 | 0.224 | 0.157 | 0.177 | 0.171 | 0.161 | 1.06 | 0.895 | 1 | 0.794 | 0.291 | 0.316 | 0.285 | 0.2 | 0.204 | 0.984 | 1.08 | 1.08 | 0.572 | 0.316
5 | NCI-H1915 | 0.737 | 0.722 | 0.821 | 0.567 | 0.373 | 1.11 | 1.12 | 1.13 | 1.1 | 0.594 | 0.605 | 0.58 | 0.283 | 0.222 | 0.417 | 0.536 | 0.475 | 0.403 | 0.188
6 | NCI-H1944 | 0.73 | 0.625 | 0.397 | 0.329 | 0.183 | 1.15 | 1.31 | 1.21 | 1.05 | 0.382 | 0.404 | 0.362 | 0.233 | 0.208 | 0.498 | 0.576 | 0.465 | 0.244 | 0.22
7 | NCI-H1975 | 0.238 | 0.209 | 0.217 | 0.199 | 0.13 | 0.946 | 0.906 | 0.909 | 0.803 | 0.532 | 0.526 | 0.467 | 0.264 | 0.209 | 0.283 | 0.306 | 0.27 | 0.219 | 0.185
8 | NCI-H1993 | 0.968 | 1.08 | 0.925 | 0.771 | 0.275 | 0.755 | 0.76 | 0.78 | 0.645 | 0.484 | 0.586 | 0.53 | 0.552 | 0.653 | 0.53 | 0.609 | 0.558 | 0.536 | 0.472
9 | NCI-H2009 | 1.05 | 0.967 | 0.974 | 0.771 | 0.762 | 1.22 | 1.16 | 1.3 | 1.09 | 0.59 | 0.691 | 0.628 | 0.636 | 0.451 | 0.949 | 0.965 | 0.963 | 0.84 | 0.619
10 | NCI-H2023 | 0.648 | 0.528 | 0.313 | 0.111 | 0.0763 | 0.727 | 0.77 | 0.666 | 0.444 | 0.287 | 0.29 | 0.264 | 0.12 | 0.0886 | 0.199 | 0.192 | 0.152 | 0.127 | 0.0994
11 | NCI-H2085 | 0.414 | 0.426 | 0.384 | 0.278 | 0.251 | 0.994 | 0.957 | 0.902 | 0.757 | 0.737 | 0.625 | 0.676 | 0.334 | 0.293 | 0.826 | 0.918 | 0.869 | 0.712 | 0.532
12 | NCI-H2087 | 0.157 | 0.125 | 0.18 | 0.127 | 0.143 | 0.913 | 0.863 | 1.09 | 1.12 | 0.666 | 0.509 | 0.376 | 0.27 | 0.213 | 0.68 | 0.581 | 0.67 | 0.613 | 0.304
13 | NCI-H2126 | 0.815 | 0.906 | 0.894 | 0.766 | 0.462 | 0.731 | 0.731 | 0.684 | 0.695 | 0.725 | 0.699 | 0.712 | 0.402 | 0.308 | 0.71 | 0.687 | 0.674 | 0.405 | 0.306
14 | NCI-H2228 | 0.187 | 0.132 | 0.135 | 0.184 | 0.102 | 0.881 | 0.541 | 0.557 | 0.276 | 0.695 | 0.595 | 0.416 | 0.266 | 0.208 | 0.316 | 0.399 | 0.323 | 0.271 | 0.172
15 | NCI-H2347 | 0.337 | 0.378 | 0.348 | 0.193 | 0.081 | 0.995 | 0.992 | 0.966 | 0.865 | 0.292 | 0.284 | 0.175 | 0.217 | 0.153 | 0.442 | 0.447 | 0.339 | 0.369 | 0.341
16 | NCI-H2405 | 0.789 | 0.767 | 0.944 | 0.808 | 0.597 | 0.899 | 0.873 | 0.854 | 0.588 | 0.574 | 0.652 | 0.582 | 0.567 | 0.414 | 1.06 | 1.22 | 1.02 | 0.978 | 0.667
17 | NCI-H3122 | 0.129 | 0.141 | 0.102 | 0.0843 | 0.073 | 1.04 | 0.983 | 1.16 | 1.08 | 1.01 | 1.08 | 0.998 | 0.823 | 0.191 | 0.186 | 0.208 | 0.2 | 0.171 | 0.185
